Measured values taken from publication PMC5218480 (PLoS ONE, 2017).

Tested on: MV-4-11 cells
Test: Gene expression microarray analysis (Affymetrix PrimeView) and GSEA
Format: cell-based, human
Design: RFU PODN (11730768_x_at) / Fold change /veh PODN (11730768_x_at) / RFU LINC00158 (11744669_a_at) / Fold change /veh LINC00158 (11744669_a_at) / RFU DUSP10 (11751237_a_at) / Fold change /veh DUSP10 (11751237_a_at) / RFU ID3 (11757404_x_at) / Fold change /veh ID3 (11757404_x_at) / RFU PLEKHG5 (11737974_s_at) / Fold change /veh PLEKHG5 (11737974_s_at) / RFU LRRC4B (11730491_at) / Fold change /veh LRRC4B (11730491_at) / RFU GIMAP4 (11747438_a_at) / Fold change /veh GIMAP4 (11747438_a_at) / RFU KRT8 (11758183_x_at) / Fold change /veh KRT8 (11758183_x_at) / RFU CNN1 (11734310_a_at) / Fold change /veh CNN1 (11734310_a_at) / RFU VPS37D (11726825_at) / Fold change /veh VPS37D (11726825_at) / RFU C10orf10 (11716522_x_at) / Fold change /veh C10orf10 (11716522_x_at) / RFU KIR2DL2 /// KIR2DL4 /// KIR2DL5A /// KIR2DL5B /// KIR2DS1 /// KIR2DS2 /// KIR2DS3 /// KIR2DS4 /// KIR3DL3 /// KIR3DL3 /// KIR3DS1 (11738374_at) / Fold change /veh KIR2DL2 /// KIR2DL4 /// KIR2DL5A /// KIR2DL5B /// KIR2DS1 /// KIR2DS2 /// KIR2DS3 /// KIR2DS4 /// KIR3DL3 /// KIR3DL3 /// KIR3DS1 (11738374_at) / RFU C1QL1 (11718748_at) / Fold change /veh C1QL1 (11718748_at) / RFU TMPRSS4 (11747572_a_at) / Fold change /veh TMPRSS4 (11747572_a_at) / RFU HAMP (11756126_x_at) / Fold change /veh HAMP (11756126_x_at) / RFU RNFT2 (11725882_a_at) / Fold change /veh RNFT2 (11725882_a_at) / RFU NR4A2 (11747474_a_at) / Fold change /veh NR4A2 (11747474_a_at) / RFU ABCC12 (11746883_a_at) / Fold change /veh ABCC12 (11746883_a_at) / RFU TMEM136 (11760407_x_at) / Fold change /veh TMEM136 (11760407_x_at) / RFU CLDN22 /// WWC2 (11732394_at) / Fold change /veh CLDN22 /// WWC2 (11732394_at) / RFU HLA-DPB1 (11760878_x_at) / Fold change /veh HLA-DPB1 (11760878_x_at) / RFU SPINT1 (11716480_a_at) / Fold change /veh SPINT1 (11716480_a_at) / RFU GAP43 (11754022_s_at) / Fold change /veh GAP43 (11754022_s_at) / RFU A4GNT (11735810_at) / Fold change /veh A4GNT (11735810_at) / RFU PRB3 (11715151_x_at) / Fold change /veh PRB3 (11715151_x_at) / RFU TUBB4B (11761932_at) / Fold change /veh TUBB4B (11761932_at) / RFU CAPN14 (11732068_a_at) / Fold change /veh CAPN14 (11732068_a_at) / RFU TMCC2 (11721928_a_at) / Fold change /veh TMCC2 (11721928_a_at) / RFU IRGQ (11745062_a_at) / Fold change /veh IRGQ (11745062_a_at) / RFU FAM174B (11720279_a_at) / Fold change /veh FAM174B (11720279_a_at) / RFU TMPRSS4 (11748680_a_at) / Fold change /veh TMPRSS4 (11748680_a_at) / RFU FAM212B (11763350_a_at) / Fold change /veh FAM212B (11763350_a_at) / RFU PLEKHG5 (11743358_a_at) / Fold change /veh PLEKHG5 (11743358_a_at) / RFU ZSCAN30 (11745921_a_at) / Fold change /veh ZSCAN30 (11745921_a_at) / RFU CMKLR1 (11741424_a_at) / Fold change /veh CMKLR1 (11741424_a_at) / RFU LOC101060620 /// MAPK8IP1 (11723275_at) / Fold change /veh LOC101060620 /// MAPK8IP1 (11723275_at) / RFU SPTSSB (11747773_x_at) / Fold change /veh SPTSSB (11747773_x_at) / RFU PRSS12 (11739890_at) / Fold change /veh PRSS12 (11739890_at) / RFU BIN1 (11741810_x_at) / Fold change /veh BIN1 (11741810_x_at) / RFU WNT11 (11732464_a_at) / Fold change /veh WNT11 (11732464_a_at) / RFU C10orf10 (11716521_a_at) / Fold change /veh C10orf10 (11716521_a_at) / RFU C5orf56 (11738089_at) / Fold change /veh C5orf56 (11738089_at) / RFU CYB561 (11721691_x_at) / Fold change /veh CYB561 (11721691_x_at) / RFU ANKRD19P (11752326_a_at) / Fold change /veh ANKRD19P (11752326_a_at) / RFU OR2T12 /// OR2T33 /// OR2T8 (11738714_s_at) / Fold change /veh OR2T12 /// OR2T33 /// OR2T8 (11738714_s_at) / RFU VCAN (11748164_a_at) / Fold change /veh VCAN (11748164_a_at) / RFU JSRP1 (11732532_at) / Fold change /veh JSRP1 (11732532_at) / RFU KRTAP10-11 (11738290_x_at) / Fold change /veh KRTAP10-11 (11738290_x_at) / RFU MYO3A (11730013_a_at) / Fold change /veh MYO3A (11730013_a_at) / RFU EBF3 (11725865_a_at) / Fold change /veh EBF3 (11725865_a_at) / RFU CAMK2N1 (11719241_x_at) / Fold change /veh CAMK2N1 (11719241_x_at) / RFU C5orf56 (11738088_a_at) / Fold change /veh C5orf56 (11738088_a_at) / RFU OLFML3 (11715873_a_at) / Fold change /veh OLFML3 (11715873_a_at) / RFU LOC100653217 /// NTM (11731650_a_at) / Fold change /veh LOC100653217 /// NTM (11731650_a_at) / RFU MAPK11 (11762145_a_at) / Fold change /veh MAPK11 (11762145_a_at) / RFU FIZ1 (11724087_x_at) / Fold change /veh FIZ1 (11724087_x_at) / RFU OASL (11726364_x_at) / Fold change /veh OASL (11726364_x_at) / RFU SOX15 (11748057_x_at) / Fold change /veh SOX15 (11748057_x_at) / RFU CD79A (11719716_a_at) / Fold change /veh CD79A (11719716_a_at) / RFU HIST1H1D (11736915_at) / Fold change /veh HIST1H1D (11736915_at) / RFU CASKIN2 (11723855_a_at) / Fold change /veh CASKIN2 (11723855_a_at) / RFU LOC730098 (11760151_x_at) / Fold change /veh LOC730098 (11760151_x_at) / RFU OR4N2 (11742367_at) / Fold change /veh OR4N2 (11742367_at) / RFU PRRT2 (11749266_a_at) / Fold change /veh PRRT2 (11749266_a_at) / RFU SNX32 (11753110_a_at) / Fold change /veh SNX32 (11753110_a_at) / RFU CDHR5 (11726645_a_at) / Fold change /veh CDHR5 (11726645_a_at) / RFU RCAN1 (11760418_a_at) / Fold change /veh RCAN1 (11760418_a_at) / RFU FAM167A (11723789_a_at) / Fold change /veh FAM167A (11723789_a_at) / RFU FAM26E (11764081_at) / Fold change /veh FAM26E (11764081_at) / RFU ISYNA1 (11749810_s_at) / Fold change /veh ISYNA1 (11749810_s_at) / RFU ACY1 (11761880_at) / Fold change /veh ACY1 (11761880_at) / RFU 11764098_at / Fold change /veh 11764098_at / RFU SAMD14 (11745864_x_at) / Fold change /veh SAMD14 (11745864_x_at) / RFU NPB (11741838_a_at) / Fold change /veh NPB (11741838_a_at) / RFU TMPRSS6 (11731388_a_at) / Fold change /veh TMPRSS6 (11731388_a_at) / RFU KRTAP10-2 (11738614_at) / Fold change /veh KRTAP10-2 (11738614_at) / RFU ARHGAP8 /// PRR5-ARHGAP8 (11727945_x_at) / Fold change /veh ARHGAP8 /// PRR5-ARHGAP8 (11727945_x_at) / RFU KRTAP5-7 /// NADSYN1 (11734609_at) / Fold change /veh KRTAP5-7 /// NADSYN1 (11734609_at) / RFU RASL12 (11751679_a_at) / Fold change /veh RASL12 (11751679_a_at) / RFU CDKN2B (11736163_a_at) / Fold change /veh CDKN2B (11736163_a_at) / RFU PRF1 (11729649_at) / Fold change /veh PRF1 (11729649_at) / RFU, ZNF638 /// ZNF638-IT1 / Fold change vs veh, ZNF638 /// ZNF638-IT1 / RFU, PANK3 / Fold change vs veh, PANK3 / RFU, SH3YL1 / Fold change vs veh, SH3YL1 / RFU, ZEB2 / Fold change vs veh, ZEB2 / RFU, NRIP1 / Fold change vs veh, NRIP1 / RFU, PTTG1IP / Fold change vs veh, PTTG1IP / RFU, CAPN2 / Fold change vs veh, CAPN2 / RFU, MED14 / Fold change vs veh, MED14 / RFU, SNORA58 / Fold change vs veh, SNORA58 / RFU, C1orf63 / Fold change vs veh, C1orf63 / RFU, LRRFIP1 / Fold change vs veh, LRRFIP1 / RFU, NDUFAF7 / Fold change vs veh, NDUFAF7 / RFU, SLC12A2 / Fold change vs veh, SLC12A2 / RFU, IBTK / Fold change vs veh, IBTK / RFU, ESF1 / Fold change vs veh, ESF1 / Fold change vs veh, TMEM50B / RFU, TAOK1 / Fold change vs veh, TAOK1 / RFU, ACBD3 / Fold change vs veh, ACBD3 / RFU, TMA16 / Fold change vs veh, TMA16 / RFU, RWDD3 / Fold change vs veh, RWDD3 / RFU, BCAT1 / Fold change vs veh, BCAT1 / RFU, EDEM3 / Fold change vs veh, EDEM3 / RFU, TMEM33 / Fold change vs veh, TMEM33 / RFU, WDR75 / Fold change vs veh, WDR75 / RFU, AHCTF1 / Fold change vs veh, AHCTF1 / RFU, TFRC / Fold change vs veh, TFRC / RFU, ZDHHC17 / Fold change vs veh, ZDHHC17 / RFU, NOM1 / Fold change vs veh, NOM1 / RFU, ARL8B / Fold change vs veh, ARL8B / RFU, ZBTB11 / Fold change vs veh, ZBTB11 / RFU, TAMM41 / Fold change vs veh, TAMM41 / RFU, KIAA1704 /// LOC100996395 / Fold change vs veh, KIAA1704 /// LOC100996395 / RFU, ING1 / Fold change vs veh, ING1 / RFU, TRMT61B / Fold change vs veh, TRMT61B / RFU, FUBP3 / Fold change vs veh, FUBP3 / RFU, TP53 / Fold change vs veh, TP53 / RFU, TNKS2 / Fold change vs veh, TNKS2 / RFU, ZFP14 / Fold change vs veh, ZFP14 / RFU, ACTR2 / Fold change vs veh, ACTR2 / RFU, PPP3R1 / Fold change vs veh, PPP3R1 / RFU, PIK3R1 / Fold change vs veh, PIK3R1 / RFU, HNRNPA1 / Fold change vs veh, HNRNPA1 / RFU, RNF170 / Fold change vs veh, RNF170 / RFU, ZNF28 / Fold change vs veh, ZNF28 / RFU, RNGTT / Fold change vs veh, RNGTT / RFU, OGT / Fold change vs veh, OGT / RFU, BRD1 / Fold change vs veh, BRD1 / RFU, MARS / Fold change vs veh, MARS / RFU, ZNF655 / Fold change vs veh, ZNF655 / RFU, FAHD1 / Fold change vs veh, FAHD1 / RFU, BDP1 / Fold change vs veh, BDP1 / RFU, LRRCC1 / Fold change vs veh, LRRCC1 / RFU, ARID1A / Fold change vs veh, ARID1A / RFU, ZNF146 / Fold change vs veh, ZNF146 / RFU, ZNF330 / Fold change vs veh, ZNF330 / RFU, GPN3 / Fold change vs veh, GPN3 / RFU, C9orf123 / Fold change vs veh, C9orf123 / RFU, N4BP2L2 / Fold change vs veh, N4BP2L2 / RFU, ARFIP1 / Fold change vs veh, ARFIP1 / RFU, FAM179B / Fold change vs veh, FAM179B / RFU, BCL10 / Fold change vs veh, BCL10 / RFU, UHRF1BP1L / Fold change vs veh, UHRF1BP1L / RFU, BET1 / Fold change vs veh, BET1 / RFU, CNOT2 / Fold change vs veh, CNOT2 / RFU, ZNF268 / Fold change vs veh, ZNF268 / Fold change vs veh, ZNF507 / RFU, DGCR2 / Fold change vs veh, DGCR2 / RFU, WDSUB1 / Fold change vs veh, WDSUB1 / Fold change vs veh, HSP90B1 /// MIR3652 / RFU, ADSS / Fold change vs veh, ADSS / RFU, GK / Fold change vs veh, GK / RFU, ZNF148 / Fold change vs veh, ZNF148 / RFU, TAF9 / Fold change vs veh, TAF9 / RFU, SLC1A5 / Fold change vs veh, SLC1A5 / RFU, SLMO2 / Fold change vs veh, SLMO2 / RFU, ABCC4 / Fold change vs veh, ABCC4 / RFU, LOC101060439 /// RAP1B / Fold change vs veh, LOC101060439 /// RAP1B / RFU, RFX7 / Fold change vs veh, RFX7 / RFU, GTPBP10 / Fold change vs veh, GTPBP10 / RFU, CNEP1R1 / Fold change vs veh, CNEP1R1 / RFU, BIVM-ERCC5 /// ERCC5 / Fold change vs veh, BIVM-ERCC5 /// ERCC5 / RFU, ILF3 / Fold change vs veh, ILF3 / RFU 11762660_at / Fold change /veh 11762660_at / RFU VCAN (11757783_s_at) / Fold change /veh VCAN (11757783_s_at) / RFU DDX43 (11728927_at) / Fold change /veh DDX43 (11728927_at) / RFU KRT8 (11758188_x_at) / Fold change /veh KRT8 (11758188_x_at) / RFU NKD1 (11759106_at) / Fold change /veh NKD1 (11759106_at) / RFU SRD5A1 (11742802_a_at) / Fold change /veh SRD5A1 (11742802_a_at) / RFU TPSAB1 /// TPSB2 (11721975_s_at) / Fold change /veh TPSAB1 /// TPSB2 (11721975_s_at) / RFU GSTM3 (11746129_a_at) / Fold change /veh GSTM3 (11746129_a_at) / RFU IL23R (11737362_x_at) / Fold change /veh IL23R (11737362_x_at) / RFU TMEM51 (11727254_a_at) / Fold change /veh TMEM51 (11727254_a_at) / RFU PIWIL2 (11732686_x_at) / Fold change /veh PIWIL2 (11732686_x_at) / RFU ORM1 (11744905_x_at) / Fold change /veh ORM1 (11744905_x_at) / RFU CCDC152 (11743942_at) / Fold change /veh CCDC152 (11743942_at) / RFU ECM1 (11717891_a_at) / Fold change /veh ECM1 (11717891_a_at) / RFU IL23R (11748794_a_at) / Fold change /veh IL23R (11748794_a_at) / RFU TNFAIP8L3 (11732012_x_at) / Fold change /veh TNFAIP8L3 (11732012_x_at) / RFU MBOAT4 (11741988_at) / Fold change /veh MBOAT4 (11741988_at) / RFU 11764193_at / Fold change /veh 11764193_at / RFU TMEM53 (11763286_at) / Fold change /veh TMEM53 (11763286_at) / RFU MAGEB2 (11727129_at) / Fold change /veh MAGEB2 (11727129_at) / RFU TMEM200A (11744735_a_at) / Fold change /veh TMEM200A (11744735_a_at) / RFU CCDC152 (11751479_a_at) / Fold change /veh CCDC152 (11751479_a_at) / RFU FAM211A (11726209_a_at) / Fold change /veh FAM211A (11726209_a_at) / RFU RGS16 (11746705_a_at) / Fold change /veh RGS16 (11746705_a_at) / RFU VCAN (11755009_s_at) / Fold change /veh VCAN (11755009_s_at) / RFU RHOB (11743442_s_at) / Fold change /veh RHOB (11743442_s_at) / RFU RGS16 (11720943_a_at) / Fold change /veh RGS16 (11720943_a_at) / RFU RGS16 (11720944_at) / Fold change /veh RGS16 (11720944_at) / RFU, VPS4B / Fold change vs veh, VPS4B / RFU, CREB1 / Fold change vs veh, CREB1 / RFU, DNAJC13 / Fold change vs veh, DNAJC13 / RFU, GNAQ / Fold change vs veh, GNAQ / RFU, CDK5R1 / Fold change vs veh, CDK5R1 / RFU, ZRANB3 / Fold change vs veh, ZRANB3 / RFU, CUL4A / Fold change vs veh, CUL4A / RFU, CCNY / Fold change vs veh, CCNY / RFU, UFL1 / Fold change vs veh, UFL1 / RFU, COG3 / Fold change vs veh, COG3 / RFU, DIAPH2 / Fold change vs veh, DIAPH2 / RFU, SKA2 / Fold change vs veh, SKA2 / RFU, AFF3 / Fold change vs veh, AFF3 / RFU, LMF1 / Fold change vs veh, LMF1 / RFU, IPO11 / Fold change vs veh, IPO11 / RFU, DFFB / Fold change vs veh, DFFB / RFU, FOXP1 / Fold change vs veh, FOXP1 / RFU, CARD8 / Fold change vs veh, CARD8 / RFU, STRN3 / Fold change vs veh, STRN3 / RFU, ADK / Fold change vs veh, ADK / RFU, RASSF2 / Fold change vs veh, RASSF2 / RFU, WIPF1 / Fold change vs veh, WIPF1 / RFU, LARP1B / Fold change vs veh, LARP1B / RFU, RASA1 / Fold change vs veh, RASA1 / RFU, RB1 / Fold change vs veh, RB1 / RFU, PPFIA1 / Fold change vs veh, PPFIA1 / RFU, MAT2A / Fold change vs veh, MAT2A / RFU, CCT5 / Fold change vs veh, CCT5 / RFU, WDR92 / Fold change vs veh, WDR92 / RFU, CUX1 / Fold change vs veh, CUX1 / RFU, TTC7A / Fold change vs veh, TTC7A / RFU, TMEM135 / Fold change vs veh, TMEM135 / RFU, DEPTOR / Fold change vs veh, DEPTOR / RFU, CPM / Fold change vs veh, CPM / RFU, DNAJB6 / Fold change vs veh, DNAJB6 / RFU, CACNA2D3 / Fold change vs veh, CACNA2D3 / RFU, DTX4 / Fold change vs veh, DTX4 / RFU, TFCP2 / Fold change vs veh, TFCP2 / RFU, GMCL1 /// GMCL1P1 / Fold change vs veh, GMCL1 /// GMCL1P1 / RFU, AEBP2 / Fold change vs veh, AEBP2 / RFU, SNHG1 /// SNORD22 /// SNORD25 /// SNORD26 /// SNORD27 /// SNORD28 /// SNORD29 /// SNORD31 / Fold change vs veh, SNHG1 /// SNORD22 /// SNORD25 /// SNORD26 /// SNORD27 /// SNORD28 /// SNORD29 /// SNORD31 / Fold change (Aza/veh), C12orf56 (ProbeSet 11735607_a_at) / Fold change (ACY-1035/veh), C12orf56 (ProbeSet 11735607_a_at) / Fold change (Aza/veh), FGFR1OP (ProbeSet 11751329_s_at) / Fold change (ACY-1035/veh), FGFR1OP (ProbeSet 11751329_s_at) / Fold change (Aza/veh), VPS36 (ProbeSet 11739960_a_at) / Fold change (ACY-1035/veh), VPS36 (ProbeSet 11739960_a_at) / RFU SYPL1 (11715823_x_at) / Fold change /veh SYPL1 (11715823_x_at) / RFU IGFBP7 (11715501_s_at) / Fold change /veh IGFBP7 (11715501_s_at) / RFU REEP3 (11722064_at) / Fold change /veh REEP3 (11722064_at) / RFU IGLL1 (11728026_x_at) / Fold change /veh IGLL1 (11728026_x_at): dose or concentration left out as unconfirmed
Conditions: ProbeSet 11719817_x_at; LIST B

## Nc1ncn([C@@H]2O[C@H](CO)[C@@H](O)[C@H]2O)c(=O)n1 [azacitidine]
  RFU, BET1: 81.04 RFU
